Test results taken from US20150119363A1, “METHODS OF TREATING BACTERIAL INFECTIONS” (Rampex Pharmaceuticals, Inc., priority 2012, published 2015).

What was measured:
Format in all cases: cell-based
[1] = tested on: Enterobacter cloacae ECL1058 (KPC-3, SHV-11, TEM-1); experiment: Checkerboard assay, Compound 5 with biapenem; conditions: ECL1058
Text: (§1) The potentiation effect is observed by the reduction of the minimum inhibitory concentration of β-lactam antibiotics in the presence of β-lactamase inhibitors (BLIs). […] Methods for Dilution of Antimicrobial Susceptibility Tests for Bacteria That Grow Aerobically—Eighth Edition; Approved Standard. CLSI Document M07-A8, 2009). In this assay, multiple dilutions of two drugs, namely BLI and β-lactam (biapenem), are being tested, alone and in combination, at concentrations equal to, above and below their respective minimal inhibitory concentrations (MICs). BLIs are solubilized in 10% DMSO at 10 mg/mL. Stock solutions are further diluted, according to the needs of a particular assay, in Mueller Hinton Broth (MHB). Stock solution can be stored at −80° C.
(§2) The checkerboard (CB) assay is performed in microtiter plates. Biapenem is diluted in the x axis, each column containing a single concentration of antibiotic. BLIs are diluted in the y axis, each row containing an equal concentration of BLI. The result of these manipulations is that each well of the microtiter plate contains a unique combination of concentrations of the two agents. The assay is performed in MHB with a final bacterial inoculum of 5×10^5 CFU/mL (from an early-log phase culture). Microtiter plates are incubated during 20 h at 35° C. and are read using a microtiter plate reader (Molecular Devices) at 650 nm as well as visual observation using a microtiter plate reading mirror.

[2] = tested on: Enterobacter cloacae ECL1059 (KPC-3, SHV-12, TEM-1); experiment: Checkerboard assay, Compound 5 with biapenem; conditions: ECL1059
Text: as §1, §2

[3] = tested on: Escherichia coli EC1007 (KPC-3); experiment: Checkerboard assay, Compound 5 with biapenem; conditions: EC1007
Text: as §1, §2

[4] = tested on: Klebsiella oxytoca KX1017 (KPC-2, OXA-2, SHV-30); experiment: Checkerboard assay, Compound 5 with biapenem; conditions: KX1017
Text: as §1, §2

[5] = tested on: Klebsiella oxytoca KX1018 (KPC-2, SHV-40, OXY-1); experiment: Checkerboard assay, Compound 5 with biapenem; conditions: KX1018
Text: as §1, §2

[6] = tested on: Klebsiella oxytoca KX1019 (KPC-2, OXA-2); experiment: Checkerboard assay, Compound 5 with biapenem; conditions: KX1019
Text: as §1, §2

[7] = tested on: Klebsiella pneumoniae KP1004 (KPC-2); experiment: Checkerboard assay, Compound 5 with biapenem; conditions: KP1004
Text: as §1, §2

[8] = tested on: Klebsiella pneumoniae KP1008 (KPC-2); experiment: Checkerboard assay, Compound 5 with biapenem; conditions: KP1008
Text: as §1, §2

[9] = tested on: Klebsiella pneumoniae KP1082 (KPC-2, SHV-1); experiment: Checkerboard assay, Compound 5 with biapenem; conditions: KP1082
Text: as §1, §2

[10] = tested on: Klebsiella pneumoniae KP1083 (KPC-3, SHV-1, TEM-1); experiment: Checkerboard assay, Compound 5 with biapenem; conditions: KP1083
Text: as §1, §2

[11] = tested on: Klebsiella pneumoniae KP1084 (KPC-3, SHV-11, TEM-1); experiment: Checkerboard assay, Compound 5 with biapenem; conditions: KP1084
Text: as §1, §2

[12] = tested on: Klebsiella pneumoniae KP1087 (KPC-2, CTX-M-15, SHV-11, TEM-1); experiment: Checkerboard assay, Compound 5 with biapenem; conditions: KP1087
Text: as §1, §2

[13] = tested on: Klebsiella pneumoniae KP1088 (KPC-3, SHV-11, TEM-1); experiment: Checkerboard assay, Compound 5 with biapenem; conditions: KP1088
Text: as §1, §2

[14] = tested on: Escherichia coli (EC1061) NDM-1; experiment: Biapenem MIC at various concentrations of Compound 5; conditions: EC1061 NDM-1
[15] = tested on: Klebsiella pneumonia (KP1004) KPC-2; experiment: as above; conditions: KP1004 KPC-2
[16] = tested on: K. pneumoniae KP1081 (NDM-1, CMY-6, SHV-11, CTX-M-15, TEM-1); experiment: Aztreonam/Tigemonam MIC at various concentrations of BLI; conditions: KP1081
Description: MIC values for each bacterial strain were measured for each antimicrobial compound at various concentrations of each BLI.

`O=C(O)C[C@@H]1CC[C@H](NC(=O)Cc2cccs2)B(O)O1` [Compound 5, 2-((3R,6S)-2-hydroxy-3-(2-(thiophen-2-yl)acetamido)-1,2-oxaborinan-6-yl)acetic acid] was tested, and the “Biapenem MIC” value ([1]; Compound 5 0.31 mg/L) was “Y (Y = MIC of 0.5 mg/L to 4 mg/L.)”, the “Biapenem MIC” value ([1]; Compound 5 0.625 mg/L) was “Y (Y = MIC of 0.5 mg/L to 4 mg/L.)” and the “Biapenem MIC” value ([1]; Compound 5 5 mg/L) was “X (X = MIC of less than 0.5 mg/L.)”. The “Biapenem MIC” value ([1]; Compound 5 10 mg/L) was “X (X = MIC of less than 0.5 mg/L.)”, the “Biapenem MIC” value ([2]; Compound 5 0.31 mg/L) was “X (X = MIC of less than 0.5 mg/L.)” and the “Biapenem MIC” value ([2]; Compound 5 0.625 mg/L) was “X (X = MIC of less than 0.5 mg/L.)”. For the same compound, the “Biapenem MIC” value ([2]; Compound 5 5 mg/L) was “X (X = MIC of less than 0.5 mg/L.)”, the “Biapenem MIC” value ([2]; Compound 5 10 mg/L) was “X (X = MIC of less than 0.5 mg/L.)” and the “Biapenem MIC” value ([2]; Compound 5 […]) was “X (X = MIC of less than 0.5 mg/L.)”. For the same compound, the “Biapenem MIC” value ([3]; Compound 5 0.31 mg/L) was “X (X = MIC of less than 0.5 mg/L.)”, the “Biapenem MIC” value ([3]; Compound 5 0.625 mg/L) was “X (X = MIC of less than 0.5 mg/L.)” and the “Biapenem MIC” value ([3]; Compound 5 5 mg/L) was “X (X = MIC of less than 0.5 mg/L.)”. For the same compound, the “Biapenem MIC” value ([3]; Compound 5 […]) was “X (X = MIC of less than 0.5 mg/L.)”, the “Biapenem MIC” value ([4]; Compound 5 0.31 mg/L) was “Y (Y = MIC of 0.5 mg/L to 4 mg/L.)” and the “Biapenem MIC” value ([4]; Compound 5 0.625 mg/L) was “X (X = MIC of less than 0.5 mg/L.)”. For the same compound, the “Biapenem MIC” value ([4]; Compound 5 5 mg/L) was “X (X = MIC of less than 0.5 mg/L.)”, the “Biapenem MIC” value ([4]; Compound 5 10 mg/L) was “X (X = MIC of less than 0.5 mg/L.)” and the “Biapenem MIC” value ([5]; Compound 5 0.31 mg/L) was “X (X = MIC of less than 0.5 mg/L.)”. The “Biapenem MIC” value ([5]; Compound 5 0.625 mg/L) was “X (X = MIC of less than 0.5 mg/L.)”, the “Biapenem MIC” value ([5]; Compound 5 5 mg/L) was “NG (NG = No Growth.)” and the “Biapenem MIC” value ([5]; Compound 5 10 mg/L) was “NG (NG = No Growth.)”. For the same compound, the “Biapenem MIC” value ([5]; Compound 5 […]) was “X (X = MIC of less than 0.5 mg/L.)”, the “Biapenem MIC” value ([6]; Compound 5 0.31 mg/L) was “Y (Y = MIC of 0.5 mg/L to 4 mg/L.)” and the “Biapenem MIC” value ([6]; Compound 5 0.625 mg/L) was “Y (Y = MIC of 0.5 mg/L to 4 mg/L.)”. For the same compound, the “Biapenem MIC” value ([6]; Compound 5 5 mg/L) was “X (X = MIC of less than 0.5 mg/L.)”, the “Biapenem MIC” value ([6]; Compound 5 10 mg/L) was “X (X = MIC of less than 0.5 mg/L.)” and the “Biapenem MIC” value ([6]; Compound 5 […]) was “Y (Y = MIC of 0.5 mg/L to 4 mg/L.)”. The “Biapenem MIC” value ([7]; Compound 5 0.31 mg/L) was “X (X = MIC of less than 0.5 mg/L.)”, the “Biapenem MIC” value ([7]; Compound 5 0.625 mg/L) was “X (X = MIC of less than 0.5 mg/L.)” and the “Biapenem MIC” value ([7]; Compound 5 5 mg/L) was “X (X = MIC of less than 0.5 mg/L.)”. The “Biapenem MIC” value ([7]; Compound 5 10 mg/L) was “X (X = MIC of less than 0.5 mg/L.)”, the “Biapenem MIC” value ([7]; Compound 5 […]) was “X (X = MIC of less than 0.5 mg/L.)” and the “Biapenem MIC” value ([8]; Compound 5 0.31 mg/L) was “X (X = MIC of less than 0.5 mg/L.)”. For the same compound, the “Biapenem MIC” value ([8]; Compound 5 0.625 mg/L) was “X (X = MIC of less than 0.5 mg/L.)”, the “Biapenem MIC” value ([8]; Compound 5 5 mg/L) was “NG (NG = No Growth.)” and the “Biapenem MIC” value ([8]; Compound 5 10 mg/L) was “NG (NG = No Growth.)”. For the same compound, the “Biapenem MIC” value ([8]; Compound 5 […]) was “X (X = MIC of less than 0.5 mg/L.)”, the “Biapenem MIC” value ([9]; Compound 5 0.31 mg/L) was “X (X = MIC of less than 0.5 mg/L.)” and the “Biapenem MIC” value ([9]; Compound 5 0.625 mg/L) was “X (X = MIC of less than 0.5 mg/L.)”. For the same compound, the “Biapenem MIC” value ([9]; Compound 5 5 mg/L) was “X (X = MIC of less than 0.5 mg/L.)”, the “Biapenem MIC” value ([9]; Compound 5 10 mg/L) was “X (X = MIC of less than 0.5 mg/L.)” and the “Biapenem MIC” value ([9]; Compound 5 […]) was “X (X = MIC of less than 0.5 mg/L.)”. For the same compound, the “Biapenem MIC” value ([10]; Compound 5 0.31 mg/L) was “X (X = MIC of less than 0.5 mg/L.)”, the “Biapenem MIC” value ([10]; Compound 5 0.625 mg/L) was “X (X = MIC of less than 0.5 mg/L.)” and the “Biapenem MIC” value ([10]; Compound 5 5 mg/L) was “X (X = MIC of less than 0.5 mg/L.)”. For the same compound, the “Biapenem MIC” value ([11]; Compound 5 0.31 mg/L) was “Z (Z = MIC of greater than 4 mg/L.)”, the “Biapenem MIC” value ([11]; Compound 5 0.625 mg/L) was “Z (Z = MIC of greater than 4 mg/L.)” and the “Biapenem MIC” value ([11]; Compound 5 5 mg/L) was “X (X = MIC of less than 0.5 mg/L.)”. The “Biapenem MIC” value ([11]; Compound 5 10 mg/L) was “X (X = MIC of less than 0.5 mg/L.)”, the “Biapenem MIC” value ([12]; Compound 5 0.31 mg/L) was “Z (Z = MIC of greater than 4 mg/L.)” and the “Biapenem MIC” value ([12]; Compound 5 0.625 mg/L) was “Z (Z = MIC of greater than 4 mg/L.)”. The “Biapenem MIC” value ([12]; Compound 5 5 mg/L) was “X (X = MIC of less than 0.5 mg/L.)”, the “Biapenem MIC” value ([13]; Compound 5 0.31 mg/L) was “X (X = MIC of less than 0.5 mg/L.)” and the “Biapenem MIC” value ([13]; Compound 5 0.625 mg/L) was “X (X = MIC of less than 0.5 mg/L.)”. For the same compound, the “Biapenem MIC” value ([13]; Compound 5 5 mg/L) was “X (X = MIC of less than 0.5 mg/L.)”, the “Biapenem MIC” value ([13]; Compound 5 10 mg/L) was “X (X = MIC of less than 0.5 mg/L.)” and the “Biapenem MIC” value ([14]; Compound 5 0.31 μg/ml) was 0.13 µg/mL. The “Biapenem MIC” value ([14]; Compound 5 0.63 μg/ml) was 0.13 µg/mL, the “Biapenem MIC” value ([14]; Compound 5 5 μg/ml) was 0.125 µg/mL and the “Biapenem MIC” value ([14]; Compound 5 10 μg/ml) was 0.06 µg/mL. The “Biapenem MIC” value ([14]; Compound 5 20 μg/ml) was 0.06 µg/mL, the “Biapenem MIC” value ([15]; Compound 5 0.31 μg/ml) was 0.5 µg/mL and the “Biapenem MIC” value ([15]; Compound 5 0.63 μg/ml) was 0.25 µg/mL. For the same compound, the “Biapenem MIC” value ([15]; Compound 5 5 μg/ml) was 0.06 µg/mL, the “Biapenem MIC (μg/ml)” value ([15]; Compound 5 10 μg/ml) was “≦0.03 μg/ml” and the “Biapenem MIC (μg/ml)” value ([15]; Compound 5 20 μg/ml) was “≦0.03 μg/ml”. For the same compound, the “Aztreonam MIC (μg/ml) in the presence of BLI” value (“Aztreonam MIC (μg/ml)” for short) ([16]; Compound 5 0.31 μg/ml) was 256 µg/mL, the “Aztreonam MIC (μg/ml)” value ([16]; Compound 5 0.63 μg/ml) was 128 µg/mL and the “Aztreonam MIC (μg/ml)” value ([16]; Compound 5 5 μg/ml) was 8 µg/mL. For the same compound, the “Aztreonam MIC (μg/ml)” value ([16]; Compound 5 10 μg/ml) was 4 µg/mL and the “Aztreonam MIC (μg/ml)” value ([16]; Compound 5 20 μg/ml) was 2 µg/mL.
